Where only a bound is given, the exact number is not on record here.

Experiment [1] has as its system Green Peach Aphid (GPA) (Myzus persicae) (MYZUPE). The experiment in a line: Bioassay for Green Peach Aphid (GPA), foliar spray on cabbage seedlings. Type of experiment: in vivo. The conditions noted are these: 72 h, 200 ppm foliar spray on cabbage seedlings, graded after three days, Abbott corrected % control, read-out: GPA 200 ppm, % Control (or Mortality) rating. In a few lines:
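Cabbage seedlings infested with 20-50 GPA (wingless adults and nymphs) one day before spraying to runoff with 200 ppm compound; four pots per treatment. Live aphids counted after three days at ~25° C; percent control by Abbott's correction against solvent-sprayed plants.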

Experiment [2] concerns Sweetpotato Whitefly-Crawler (WF) (Bemisia tabaci) (BEMITA). The experiment is described as follows: Insecticidal test for Sweetpotato Whitefly-Crawler (WF) in foliar spray assay on cotton plants. Type of experiment: in vivo. The conditions noted are these: 216 h, 200 ppm foliar spray on cotton plants, graded after 9 days, Abbott corrected % control, read-out: WF 200 ppm, % Control (or Mortality) rating. Summed up: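 Cotton plants carrying 200–400 whitefly eggs sprayed to run-off on both leaf surfaces at 200 ppm (acetone/0.025% Tween 20), four plants per treatment. After 9 days at about 25 °C, live 3rd–4th instar nymphs counted; Abbott-corrected percent control versus solvent check.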

Usually mortality stands for the percentage killed. As for `CCN(C(=O)CCN(CC(F)F)C(=O)CC1CC1)c1cn(-c2cccnc2)nc1Cl` [Compound F125, N-(3-Chloro-1-(pyridin-3-yl)-1H-pyrazol-4-yl)-3-(2-cyclopropyl-N-(2,2-difluoroethyl)acetamido)-N-ethylpropanamide], the mortality at 200 ppm in experiment [1] and in experiment [2] was 80 to 100% in each case.
Take `CN(C(=O)[C@@H]1C=C[C@H](NC(=O)C(F)(F)F)C1)c1cn(-c2cccnc2)nc1Cl` [Compound F126, (1S,4R)-N-(3-chloro-1-(pyridin-3-yl)-1H-pyrazol-4-yl)-N-methyl-4-(2,2,2-trifluoroacetamido)cyclopent-2-enecarboxamide]: the mortality at 200 ppm fell in the range of 0 to 80% in experiment [1] and 80 to 100% in experiment [2].
In the same order, the values of `CCN(C(=O)CCCC1CN(Cc2ccc(C(F)(F)F)cc2)C1=O)c1cn(-c2cccnc2)nc1Cl` (centres unmarked) [Compound F127, N-(3-Chloro-1-(pyridin-3-yl)-1H-pyrazol-4-yl)-N-ethyl-4-(2-oxo-1-(4-(trifluoromethyl)benzyl)azetidin-3-yl)butanamide] are 0 to 80% and 80 to 100%.
In the case of `CCN(C(=O)CCC1CCN(C(=O)OC(C)(C)C)C1=O)c1cn(-c2cccnc2)nc1Cl` (centres unmarked) [Compound F128, tert-butyl 3-(3-((3-chloro-1-(pyridin-3-yl)-1H-pyrazol-4-yl)(ethyl)amino)-3-oxopropyl)-2-oxopyrrolidine-1-carboxylate], the mortality at 200 ppm in experiment [1] and in experiment [2] was 80 to 100% throughout.
`CCN(C(=O)CCC1CN(Cc2ccc(C(F)(F)F)cc2)C1=O)c1cn(-c2cccnc2)nc1Cl` (centres unmarked) [Compound F129]: the mortality at 200 ppm in experiment [1] lay within 0 to 80%; in experiment [2], 80 to 100%.
As to `CCN(C(=O)CCC1CCNC1=O)c1cn(-c2cccnc2)nc1Cl` (centres unmarked) [Compound F131, N-(3-chloro-1-(pyridin-3-yl)-1H-pyrazol-4-yl)-N-ethyl-3-(2-oxopyrrolidin-3-yl)propanamide], the mortality at 200 ppm in experiment [1] and in experiment [2] was 80 to 100% throughout.
For `CCN(C(=O)C1CCN(C(=O)CC(F)(F)F)CC1)c1cn(-c2cccnc2)nc1Cl` [Compound P16, N-(3-chloro-1-(pyridin-3-yl)-1H-pyrazol-4-yl)-N-ethyl-1-(3,3,3-trifluoropropanoyl) piperidine-4-carboxamide], the mortality at 200 ppm was 80 to 100% in experiment [1] and 0 to 80% in experiment [2].
Regarding `CCN(C(=O)C1CCN(C(C)=O)C1)c1cn(-c2cccnc2)nc1Cl` (centres unmarked) [Compound P20, 1-Acetyl-N-(3-chloro-1-(pyridin-3-yl)-1H-pyrazol-4-yl)-N-ethylpyrrolidine-3-carboxamide], the values for the mortality at 200 ppm in experiment [1] and in experiment [2] were 80 to 100% and 0 to 80%, respectively.
On to `CCN(C(=O)C1CCN(C(=O)CC(F)(F)F)C1)c1cn(-c2cccnc2)nc1Cl` (centres unmarked) [Compound P21, N-(3-Chloro-1-(pyridin-3-yl)-1H-pyrazol-4-yl)-N-ethyl-1-(3,3,3-trifluoropropanoyl)pyrrolidine-3-carboxamide], for which the values for the mortality at 200 ppm in experiment [1] and in experiment [2] were 80 to 100% and 0 to 80%, respectively.
In the same order, the values of `CCN(C(=O)C1CN(C(C)=O)C1)c1cn(-c2cccnc2)nc1Cl` [Compound P23, 1-Acetyl-N-(3-chloro-1-(pyridin-3-yl)-1H-pyrazol-4-yl)-N-ethylazetidine-3-carboxamide] are 80 to 100% and 80 to 100%.
Taken in the same sequence, the figures for `CCN(C(=O)C1CN(C(=O)CC(F)(F)F)C1)c1cn(-c2cccnc2)nc1Cl` [Compound P24, N-(3-Chloro-1-(pyridin-3-yl)-1H-pyrazol-4-yl)-N-ethyl-1-(3,3,3-trifluoropropanoyl)azetidine-3-carboxamide] were 80 to 100% and 0 to 80%.
Taken in the same sequence, the figures for `CCN(C(=O)CCn1ccc(/C(C)=N/OC)n1)c1cn(-c2cccnc2)nc1Cl` [FA1, (E/Z)-N-(3-Chloro-1-(pyridin-3-yl)-1H-pyrazol-4-yl)-N-ethyl-3-(3-(1-(methoxyimino)ethyl)-1H-pyrazol-1-yl)propanamide] were 0 to 80% and 80 to 100%.
Take `CCN(C(=O)CCn1ccc(/C(C)=N/OC(C)C)n1)c1cn(-c2cccnc2)nc1Cl` [FA2, (E/Z)-N-(3-Chloro-1-(pyridin-3-yl)-1H-pyrazol-4-yl)-N-ethyl-3-(3-(1-(isopropoxyimino)ethyl)-1H-pyrazol-1-yl)propanamide]: the figures for the mortality at 200 ppm in experiment [1] and in experiment [2] were 0 to 80% and 80 to 100%, respectively.
In the same order, the values of `CCN(C(=O)C1CCCN(C(=O)C(C)C)C1)c1cn(-c2cccnc2)nc1Cl` (centres unmarked) [FA3, N-(3-Chloro-1-(pyridin-3-yl)-1H-pyrazol-4-yl)-N-ethyl-1-isobutylylpiperidine-3-carboxamide] are 80 to 100% and 80 to 100%.
In the same order, the values of `CCN(C(=O)CC/C(C)=N/OCCCCC(F)(F)F)c1cn(-c2cccnc2)nc1Cl` [FA4, (E/Z)-N-(3-Chloro-1-(pyridin-3-yl)-1H-pyrazol-4-yl)-N-ethyl-4-(((5,5,5-trifluoropentyl)oxy)imino)pentanamide] are 0 to 80% and 80 to 100%.
In the same order, the values of `CCN(C(=O)C1CCN(C(=O)C(F)(F)F)CC1)c1cn(-c2cccnc2)nc1Cl` [FA5, N-(3-Chloro-1-(pyridin-3-yl)-1H-pyrazol-4-yl)-N-ethyl-1-(2,2,2-trifluoroacetyl)piperidine-4-carboxamide] are 80 to 100% and 0 to 80%.
`CCN(C(=O)C1CCN(C(=O)CCC(F)(F)F)CC1)c1cn(-c2cccnc2)nc1Cl` [FA6, N-(3-Chloro-1-(pyridin-3-yl)-1H-pyrazol-4-yl)-N-ethyl-1-(4,4,4-trifluorobutanoyl)piperidine-4-carboxamide]: the figures for the mortality at 200 ppm in experiment [1] and in experiment [2] were 80 to 100% and 0 to 80%, respectively.
In the same order, the values of `CCN(C(=O)C1CCN(C(=O)CCC#N)CC1)c1cn(-c2cccnc2)nc1Cl` [FA7, N-(3-Chloro-1-(pyridin-3-yl)-1H-pyrazol-4-yl)-1-(3-cyanopropanoyl)-N-ethylpiperidine-4-carboxamide] are 80 to 100% and less than 0%.
Taken in the same sequence, the figures for `CCN(C(=O)C1CCN(C(=O)c2cccnc2)CC1)c1cn(-c2cccnc2)nc1Cl` [FA8, N-(3-Chloro-1-(pyridin-3-yl)-1H-pyrazol-4-yl)-N-ethyl-1-nicotinoylpiperidine-4-carboxamide] were 80 to 100% and 0 to 80%.
In the same order, the values of `CCN(C(=O)C1CCN(C(=O)C(F)(F)F)C1)c1cn(-c2cccnc2)nc1Cl` (centres unmarked) [FA9, N-(3-Chloro-1-(pyridin-3-yl)-1H-pyrazol-4-yl)-N-ethyl-1-(2,2,2-trifluoroacetyl)pyrrolidine-3-carboxamide] are 80 to 100% and less than 0%.
Turning to `CCN(C(=O)C1CCN(C(=O)CCC(F)(F)F)C1)c1cn(-c2cccnc2)nc1Cl` (centres unmarked) [FA10, N-(3-Chloro-1-(pyridin-3-yl)-1H-pyrazol-4-yl)-N-ethyl-1-(4,4,4-trifluorobutanoyl)pyrrolidine-3-carboxamide], the mortality at 200 ppm in experiment [1] and in experiment [2] was 80 to 100% each time.
For the compound `CCN(C(=O)C1CCN(C(=O)CCC#N)C1)c1cn(-c2cccnc2)nc1Cl` (centres unmarked) [FA11, N-(3-Chloro-1-(pyridin-3-yl)-1H-pyrazol-4-yl)-1-(3-cyanopropanoyl)-N-ethylpyrrolidine-3-carboxamide], the mortality at 200 ppm in experiment [1] and in experiment [2] was 80 to 100% in each case.
As to `CCN(C(=O)C1CCN(C(=O)c2cccnc2)C1)c1cn(-c2cccnc2)nc1Cl` (centres unmarked) [FA12, N-(3-Chloro-1-(pyridin-3-yl)-1H-pyrazol-4-yl)-N-ethyl-1-nicotinoylpyrrolidine-3-carboxamide], the mortality at 200 ppm in experiment [1] and in experiment [2] was 0 to 80% in each case.
As to `CCN(C(=O)C1CN(C(=O)C(F)(F)F)C1)c1cn(-c2cccnc2)nc1Cl` [FA14, N-(3-Chloro-1-(pyridin-3-yl)-1H-pyrazol-4-yl)-N-ethyl-1-(2,2,2-trifluoroacetyl)azetidine-3-carboxamide], the mortality at 200 ppm in experiment [1] and in experiment [2] was 80 to 100% each time.
On to `CCN(C(=O)C1CN(C(=O)CCC(F)(F)F)C1)c1cn(-c2cccnc2)nc1Cl` [FA15, N-(3-Chloro-1-(pyridin-3-yl)-1H-pyrazol-4-yl)-N-ethyl-1-(4,4,4-trifluorobutanoyl)azetidine-3-carboxamide], for which the mortality at 200 ppm in experiment [1] and in experiment [2] was 80 to 100% each time.
On to `CCN(C(=O)C1CN(C(=O)CCC#N)C1)c1cn(-c2cccnc2)nc1Cl` [FA16, N-(3-Chloro-1-(pyridin-3-yl)-1H-pyrazol-4-yl)-1-(3-cyanopropanoyl)-N-ethylazetidine-3-carboxamide], for which the mortality at 200 ppm in experiment [1] and in experiment [2] was 0 to 80% throughout.
With `CCN(C(=O)C1CN(C(=O)c2cccnc2)C1)c1cn(-c2cccnc2)nc1Cl` [FA17, N-(3-Chloro-1-(pyridin-3-yl)-1H-pyrazol-4-yl)-N-ethyl-1-nicotinoyl azetidine-3-carboxamide], the mortality at 200 ppm in experiment [1] and in experiment [2] was 0 to 80% in each case.
In the case of `CCN(C(=O)C1CCCN(C(=O)OC(C)(C)C)C1)c1cn(-c2cccnc2)nc1Cl` (centres unmarked) [FA18, tert-Butyl 3-((3-chloro-1-(pyridin-3-yl)-1H-pyrazol-4-yl)(ethyl)carbamoyl) piperidine-1-carboxylate], the mortality at 200 ppm in experiment [1] and in experiment [2] was 80 to 100% each time.

Values taken from patent US9523100B2, “Pesticidal compositions and related methods” (DOW AGROSCIENCES LLC, priority 2013, dated 2016).
